The values that follow come from patent US20260103474A1, “NOVEL COMPOUNDS FOR THE DIAGNOSIS OF TDP-43 PROTEINOPATHIES” (AC IMMUNE SA, priority 2022, published 2026).

The target of one experiment is T1, Abeta (Homo sapiens, UniProt P05067).
T1 construct: an AD donor with confirmed burden of Tau and Abeta aggregates; from tissue; host or cells: frontal cortex of a human AD donor, Triton/sucrose-insoluble fraction
Briefly: Radiobinding competition assay using Abeta reference compound on AD insoluble fraction of brain homogenates. The class given is binding. The settings on record: against [3H]Abeta reference compound; cells printed in μM; read-out: Ki on AD brain homogenates. The procedure: Approximately 4 g of frozen tissue block from frontal cortex brain region was used from an AD donor with confirmed burden of Tau and Abeta aggregates. The tissue was homogenized in three volumes (1:3 w/v) of high salt buffer (50 mM Tris-HCl pH 7.5, 750 mM NaCl, 5 mM EDTA) supplemented with protease inhibitors (Complete; Roche 11697498001) at 4° C. with a glass Dounce homogenizer. The homogenate was transferred into polycarbonate centrifuge bottles (16×76 mm; Beckman 355603) and centrifuged at 100,000×g (38,000 RPM) in an ultracentrifuge (Beckman, XL100K) for 60 minutes at 4° C. using a pre-cooled 70.1 rotor (Beckman, 342184). Pellets were resuspended in high salt buffer supplemented with 1% Triton X-100 and homogenized at 4° C. with a syringe. The homogenates were centrifuged again at 100,000×g (38,000 RPM, 70.1 rotor) for 60 minutes at 4° C. Pellets were resuspended in high salt buffer supplemented with 1% Triton X-100 and 1 M sucrose and homogenized at 4° C. with a syringe. The homogenates were centrifuged at 100,000×g (38,000 RPM, 70.1 rotor) for 60 minutes at 4° C. The resulting pellets containing insoluble fraction were resuspended in PBS (1:2 w/v relative to starting tissue weight), aliquoted and stored at −80° C. until use.
The reaction was performed in assay buffer (50 mM Tris pH 7.5 in 0.9% NaCl, 0.1% BSA) and incubated for two hours at room temperature (RT). Samples in duplicate were then filtered under vacuum in GF/C filter plates (PerkinElmer) to trap the aggregates with the bound radioligand and washed with 100 μL ice-cold 50 mM Tris pH 7.5. The GF/C filters were then dried and scintillation liquid (UltimateGold, PerkinElmer, 6013151) was added in each well. The filters were analyzed on a Microbeta2 scintillation counter (PerkinElmer). Values for the maximal signal were obtained in the absence of non-radiolabeled compound, while 100% displacement was obtained using 1 μM of non-radiolabeled reference compound. Ki values were calculated by nonlinear regression, using a one site—fit Ki model in Prism V7 (GraphPad).

The target of another experiment is TDP-43 aggregates (Homo sapiens, UniProt Q13148). Nature of the experiment: Classical autoradiography in brain sections from patients with FTD. The class given is binding. The procedure: All tissues were collected from donors for or from whom a written informed consent for a brain autopsy and the use of the material and clinical information for research purposes had been obtained by the respective brain banks. All samples were anonymized and coded. Frozen brain tissue blocks with confirmed TDP-43 pathology upon autopsy were processed using a cryotome to generate sections of 10 μm in thickness and mounted on glass slides. Sections were kept at −80° C. until use.
Brain sections were fixed for 15 minutes at 4° C. with 4% formaldehyde on ice and washed three times for eight minutes with 1×PBS at RT. Sections were blocked in assay buffer for 30 minutes (50 mM Tris-HCl, 0.9% NaCl+0.1% BSA). Cold test compound (Compound 1, Compound 8 or Compound 17) was diluted in assay buffer to 4 μM and applied on half of the sections for 40 minutes at RT to determine non-specific binding. The remaining half of the sections were only incubated with assay buffer (total binding). Following this incubation, an equal volume of the corresponding tritiated compound (i.e. [^3H]-Compound 1, [^3H]-Compound 8 or [^3H]-Compound 17, respectively), diluted to 20 nM (for [^3H]-Compound 1 and [^3H]-Compound 8) or 10 nM ([^3H]-Compound 17) or increasing concentration from 0.1 to 200 nM (for [^3H]-Compound 1 and [^3H]-Compound 17), was added on sections and incubated for 2 hours at RT and then washed as follows: once in ice-cold 50 mM Tris-HCl pH 7.4 buffer for one minute, twice in ice-cold PBS for one minute, once in ice-cold 50 mM Tris-HCl pH 7.4 buffer for one minute and finally rinsed briefly in ice-cold distilled water.
Sections were subsequently dried under a stream of air and mounted with a copper-based adhesive strip. Bound radioactivity was quantified by exposing the slides in a real-time autoradiography system (Beaquant™ AI4R) for 2 hours, with measurement settings configured for tritium. Beavacq software (AI4R) was used to acquire the image which was subsequently quantified using Beamage image analysis software (AI4R). Specific binding (non-specific binding subtracted from total) and displacement (total binding divided by non-specific) were calculated. Bar graphs were generated using GraphPad Prism. For Kd determination on brain sections, the specific binding data were fitted with a non-linear regression analysis using a one-site specific binding model in GraphPad Prism.

The target in experiment [1] is T2, Human brain derived TDP-43 aggregates (Homo sapiens, UniProt Q13148).
T2 construct: Human FTD sarkosyl-insoluble brain extracts were spotted onto microarray slides
Briefly: Micro-radiobinding competition assay for binding affinity to TDP-43. The settings on record: for Ki: 0.24 nM to 2 μM vs tritiated reference ligand at 40 nM; for Human brain derived TDP-43 aggregates Mean % competition at 250 nM: non-radiolabeled compound at 250 nM vs tritiated reference ligand at 40 nM; for Human brain derived TDP-43 aggregates Mean % competition at 250 nM / Human brain derived TDP-43 aggregates Mean % competition at 2 μM: FTD sarkosyl-insoluble brain extracts; for Human brain derived TDP-43 aggregates Mean % competition at 2 μM: non-radiolabeled compound at 2 μM vs tritiated reference ligand at 40 nM. The protocol:
(§1) Human brain extracts were prepared as described in Laferriere et al., 2019, Nature Neurosc. A sample of brain tissue (frontal or temporal cortex) was homogenized at 1:4 (w/v) ratio in the homogenization-solubilization (HS) buffer at 4° C. using tissue homogenizer (Precellys) with CKmix homogenization tubes. The following sequence was used for homogenization: 3 cycles of 30 seconds at 5000 rpm (with 15 seconds pause between each cycle). Homogenized samples were aliquoted and stored at −80° C. in 1.5 mL low protein binding tubes.
(§2) Brain homogenates were thawed on ice and resuspended in HS buffer to obtain a final concentration of 2% sarkosyl, 1 unit/μL Benzonase and 1 mM MgCl2. The samples were then incubated at 37° C. under constant shaking at 600 rpm on a thermomixer for 45 minutes (min). The supernatants were collected in a new tube (sarkosyl-soluble fraction, S1). The pellet was resuspended in 1000 μL of myelin floatation buffer and centrifuged at 20,000 g for 60 min at 4° C. The supernatant was carefully removed to remove all the floating lipids. This step was repeated if all the lipids could not be removed in a single step. The pellet was subsequently washed with Phosphate-Buffered Saline (PBS) and centrifuged for 30 min at 20,000 g at 4° C. The final pellet was resuspended in 200 μL PBS and stored at −80° C. (sarkosyl-insoluble fraction). The samples were analyzed by immunoblotting in denaturing conditions.
Human FTD sarkosyl-insoluble brain extracts were spotted onto microarray slides. The slides were incubated with a tritiated reference ligand at 40 nM, and the example compounds (non-radiolabeled) at 2 μM and 250 nM. […] After incubation, slides were washed and scanned by a real-time autoradiography system (BeaQuant, ai4R). Quantification of the signal was performed by using the Beamage image analysis software (ai4R). Non-specific signal was determined with an excess of non-radiolabeled reference compound (2 μM) and specific binding was calculated by subtracting the non-specific signal from the total signal. Competition was calculated as percent, where 0% was defined as the specific binding in the presence of vehicle and 100% as the values obtained in the presence of excess of the non-radiolabeled reference compound. Ki values were calculated in GraphPad Prism8 by applying a nonlinear regression curve fit using a one site, specific binding model. Measurements were performed with at least two technical replicates in the two-concentration competition experiment and with one technical replicate in the experiments including a range of concentrations. For compounds tested in more than one experiment, the mean of the replicates or Ki values in independent experiments is reported.

In experiment [2] the target is human FTD Type A sarkosyl-insoluble brain extracts (Homo sapiens, UniProt Q13148). Briefly: Kd determination by micro-radiobinding assay on FTD Type A extracts. The class given is binding. The settings on record: tritiated compound 1.29 to 300 nM. The procedure: as §1, §2
Human FTD sarkosyl-insoluble brain extracts were spotted onto microarray slides. The slides were incubated with [^3H]-Compounds 1, 7, 8, 9, 15, 16 and 17 in a range of concentrations, varying from 1.29 to 300 nM. After incubation, slides were washed and scanned by a real-time autoradiography system (BeaQuant, ai4R). Quantification of the signal was performed by using the Beamage image analysis software (ai4R). Non-specific signal was determined with an excess of non-radiolabeled compound 1, 7, 8, 9, 15, 16 and 17 (1 μM), respectively, and specific binding was calculated by subtracting the non-specific signal from the total signal.
The Kd (Dissociation constant) and R^2 (parameter ranging between 0.0 and 1.0 that quantifies the goodness of fit, and the best curve fit obtained with value of 1.0) were obtained by fitting the specific binding data with non-linear regression analysis, using a one-site specific binding model in GraphPad Prism8.

[3] abbreviates: total binding divided by non-specific binding, grey matter, self-block with cold compound.

The Ki is the equilibrium dissociation constant of an inhibitor or competing ligand from its target. What is called Kd is a measure of binding affinity in units of concentration.

Bounds are passed on as bounds.

Sequence of human FTD Type A sarkosyl-insoluble brain extracts (Q13148 263-414 limits assumed): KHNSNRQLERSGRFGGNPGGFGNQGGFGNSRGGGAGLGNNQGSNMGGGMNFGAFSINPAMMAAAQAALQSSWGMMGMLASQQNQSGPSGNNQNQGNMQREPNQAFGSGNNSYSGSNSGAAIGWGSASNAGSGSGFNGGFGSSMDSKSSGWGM
T2 sequence (Q13148 261-414 limits assumed): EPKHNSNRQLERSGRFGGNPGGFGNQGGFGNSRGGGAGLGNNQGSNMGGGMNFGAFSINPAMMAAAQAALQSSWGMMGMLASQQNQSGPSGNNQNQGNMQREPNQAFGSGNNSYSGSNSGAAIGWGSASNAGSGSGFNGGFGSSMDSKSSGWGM
T1 sequence (P05067 672-713 limits assumed): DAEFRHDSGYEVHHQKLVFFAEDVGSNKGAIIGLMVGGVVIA
Sequence of TDP-43 aggregates (Q13148 whole entry): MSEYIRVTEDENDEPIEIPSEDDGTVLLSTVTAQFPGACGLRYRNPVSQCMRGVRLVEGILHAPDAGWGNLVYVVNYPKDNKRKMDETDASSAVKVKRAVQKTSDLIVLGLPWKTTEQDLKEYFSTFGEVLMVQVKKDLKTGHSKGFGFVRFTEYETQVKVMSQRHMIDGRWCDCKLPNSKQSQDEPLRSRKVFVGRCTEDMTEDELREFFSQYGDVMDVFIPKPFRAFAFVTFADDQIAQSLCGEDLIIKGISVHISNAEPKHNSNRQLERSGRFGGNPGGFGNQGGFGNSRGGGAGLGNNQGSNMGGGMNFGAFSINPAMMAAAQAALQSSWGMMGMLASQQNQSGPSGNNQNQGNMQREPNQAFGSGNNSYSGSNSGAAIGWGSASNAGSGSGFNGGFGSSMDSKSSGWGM

As to `O=C1c2sc(-c3ccc(N4CC[C@H](F)C4)nc3F)nc2CCN1c1cccnc1` [Compound 8, (S)-2-(2-fluoro-6-(3-fluoropyrrolidin-1-yl)pyridin-3-yl)-5-(pyridin-3-yl)-6,7-dihydrothiazolo[5,4-c]pyridin-4(5H)-one], on Abeta, the Ki was over 1 µM. Also, the “Displacement on FTLD-TDP type A and B compared to non-demented control” value on TDP-43 aggregates (classical autoradiography) was “increased displacement”. On TDP-43 aggregates (setting [3]), the “cARG displacement on FTLD-TDP Type A case” value came to 3.0, the “cARG displacement on FTLD-TDP Type B case” value is 3.3 and the “cARG displacement on non-demented control” value is 2.3. In experiment [1], the Ki is 73 nM, the “Human brain derived TDP-43 aggregates Mean % competition at 250 nM” value amounted to 55% and the “Human brain derived TDP-43 aggregates Mean % competition at 2 μM” value came to 73%.

Take `N#Cc1c(N)cccc1N1CCc2nc(-c3ccc(N4CCC[C@H](F)C4)nc3F)sc2C1=O` [Compound 31]: the Ki at Abeta is over 1 µM. Besides, in experiment [1], the Ki was 4 nM, the “Human brain derived TDP-43 aggregates Mean % competition at 250 nM” value is given as 62% and the “Human brain derived TDP-43 aggregates Mean % competition at 2 μM” value was found to be 70%.

On to `N#Cc1c(N)cccc1N1CCc2nc(-c3ccc(N4CC[C@H](F)C4)nc3F)sc2C1=O` [Compound 32], for which, at Abeta, the Ki was over 1 µM. In experiment [1], the affinity corresponds to a Ki of 4 nM, the “Human brain derived TDP-43 aggregates Mean % competition at 250 nM” value is 65% and the “Human brain derived TDP-43 aggregates Mean % competition at 2 μM” value amounted to 80%.

As for `N#Cc1c(N)cccc1N1CCc2nc(-c3ccc(N4CC[C@@H](F)C4)nc3F)sc2C1=O` [Compound 34], on Abeta, the Ki was over 1 µM. Also, in experiment [1], affinity was put at a Ki of 5 nM, the “Human brain derived TDP-43 aggregates Mean % competition at 250 nM” value stood at 60% and the “Human brain derived TDP-43 aggregates Mean % competition at 2 μM” value is listed as 77%.

On to `O=C1c2sc(-c3ccc(N4CCC[C@H](F)C4)nc3F)nc2CCN1c1ncccn1` [Compound 35], for which, on Abeta, the Ki was over 1 µM. Moreover, in experiment [1], the affinity corresponds to a Ki of 49 nM, the “Human brain derived TDP-43 aggregates Mean % competition at 250 nM” value is recorded as 55% and the “Human brain derived TDP-43 aggregates Mean % competition at 2 μM” value was found to be 70%.

For `O=C1c2sc(-c3ccc(N4CC[C@H](F)C4)nc3F)nc2CCN1c1ccncn1` [Compound 37], the Ki at Abeta is over 1 µM. Besides, in experiment [1], the Ki turned out to be 25 nM, the “Human brain derived TDP-43 aggregates Mean % competition at 250 nM” value came out at 80% and the “Human brain derived TDP-43 aggregates Mean % competition at 2 μM” value stood at 70%.

As to `O=C1c2sc(-c3ccc(N4CC[C@@H](F)C4)nc3F)nc2CCN1c1ccncc1` [Example 7], the Ki on Abeta is over 1 µM. In experiment [1], the Ki was 51 nM, the “Human brain derived TDP-43 aggregates Mean % competition at 250 nM” value amounted to 51% and the “Human brain derived TDP-43 aggregates Mean % competition at 2 μM” value stood at 73%.

In the case of `[3H]c1cc(N2CCc3nc(-c4cc([3H])c(N5CC[C@@H](F)C5)nc4F)sc3C2=O)ccn1` [[^3H]-Compound 7, Tritiated (R)-2-(2-fluoro-6-(3-fluoropyrrolidin-1-yl)pyridin-3-yl)-5-(pyridin-4-yl)-6,7-dihydrothiazolo[5,4-c]pyridin-4(5H)-one], the Kd in experiment [2] worked out at 39 ± 11 nM.

The compound `[3H]c1cncc(N2CCc3nc(-c4cc([3H])c(N5CC[C@H](F)C5)nc4F)sc3C2=O)c1` [[^3H]-Compound 8, tritiated (S)-2-(2-fluoro-6-(3-fluoropyrrolidin-1-yl)pyridin-3-yl)-5-(pyridin-3-yl)-6,7-dihydrothiazolo[5,4-c]pyridin-4(5H)-one] registered a Kd in experiment [2] of 47 ± 8 nM.

`[3H]c1cnc(N2CCc3nc(-c4cc([3H])c(N5CC[C@@H](F)C5)nc4F)sc3C2=O)nc1` [[^3H]-Compound 15, Tritiated 2-[2-fluoro-6-[(3R)-3-fluoropyrrolidin-1-yl]-3-pyridyl]-5-pyrimidin-2-yl-6,7-dihydrothiazolo[5,4-c]pyridine-4-one]: in experiment [2], binding was characterised by a dissociation constant (Kd) of 21 ± 7 nM.

Take `O=C1c2sc(-c3ccc(N4CC[C@H](F)C4)nc3F)nc2CCN1c1ncccn1` [[^3H]-Compound 16]: the affinity in experiment [2], expressed as Kd, was 24 ± 3 nM.
